We go through one compound from US20110294741A1, “USE OF COMPOUNDS IN THE TREATMENT OF TAU-INDUCED CYTOTOXICITIES” (Bioalvo-Servicos, Investigacao e Desenvolvimento em …, priority 2008, published 2011).

Series [1] is described as follows: Cytotoxicity in human hepatocytes (LDH release and ATP). The format is cell-based. The following applies: LDH and ATP determination, read-out: LC50 (the source's name). How it is done:
Cytotoxicity was assessed with a cell-based assay using human hepatocytes. Cell death was assayed by quantifying plasma membrane damage or rupture through measurement of the release of lactate dehydrogenase (LDH) (Legrand, C. et al. 1992. Lactate dehydrogenase (LDH) activity of the cultured eukaryotic cells as marker of the number of dead cells in the medium. J. Biotechnol. 25: 231-243), a stable cytoplasmic enzyme present in most cells. Determination of cell viability was performed by quantifying ATP (Cree I. A and Andreotti P. E. 1997. Measurement of cytotoxicity by ATP-based luminescence assay in primary cell cultures and cell lines. Toxicology in vitro, 11: 553-556), a marker for cell viability because it is present in all metabolically active cells and the concentration declines very rapidly when the cells undergo necrosis or apoptosis.

Another series in a line: Plasma stability. The series is classed as in vitro ADME, human. The following applies: after 1 h incubation. The text has this:
Drugs are exposed in plasma to enzymatic processes (proteinases, esterases), they can undergo intramolecular rearrangement or bind irreversibly (covalently) to proteins. Compounds which are not stable in plasma have inherent liability as drug candidates, as they are less capable to reach a sufficient concentration at their site of pharmacological activity.

The test system of series [2] is rats (Wister, male). The experiment in a line: Tail-flick test. The format is in vivo, rat. Here is the method: (§1) Kyotorphin is an endogenous analgesic agent in the brain. However, Kyotorphin can not be used as an analgesic due to its inability to cross the blood-brain-barrier. […] In addition, KTP-NH2 efficacy after oral administration was also observed.
(§2) In vivo behavioural anti-nociception tests were carried out in rats (Wister, male). Unless otherwise stated, compounds were administered by intra-peritoneal (i.p.) injection. For most assays, the Tail Flick and the Hot Plate tests were used.
The tail-flick test (D'Amour F. E., Smith D. L. 1941. A method for determining the loss of pain sensation. J Pharmacol Exp Ther 1941; 72:74-79) is a standard investigative tool for pain and analgesia assessment in rodents. It is based on a spinal reflex response of the tail to radiant heat. Pain sensitivity in rats was measured as they responded to the application of radiant heat to a small area of their tails. […]
(§3) A KTP derivative was used for comparative purposes, as control. Both drugs were injected i.p. and p.o. and rats were analysed for the Hot Plate and Tail Flick tests.
Additionaly, the central action of KTP-NH2 was confirmed by experiments of naloxone-reversible analgesia. […] In order to corroborate the evidence that KTP-NH2 was exerting its analgesic effect via a central action, we analyzed the antinociceptive effect of KTP-NH2 after pretreatment with naloxone.
For orientation: Hot-plate and tail-flick tests time the reaction to a heat stimulus.

Series [3] can be described thus: Differential quenching, depth of location in the membrane. The format is physicochemical. The conditions noted are these: phenolic ring, differential quenching with Brownian dynamics simulation. The text has this: The x-axis indicates the distance to the bilayer center, being the monolayer thickness 20 Å and y-axis represents the values of the probability density function. Traces (4) and (5) relate to the location of the quenching agents used in the study.
Differential quenching experiments were used to estimate the depth of location of the phenolic ring of the peptides, based on a Brownian dynamics simulation (Fernandes M. X., García de la Torre J., Castanho M. A. 2002. Joint determination by Brownian dynamics and fluorescence quenching of the in-depth location profile of biomolecules in membranes. Anal. Biochem. 307: 1-12.) This methodology allows to determine where the molecules are preferably inserted along the lipid bilayer. The peptides with the amide group show a greater depth of insertion, 4 Å—KTP-NH2, from the lipid/water interface. This is in agreement with KTP-NH2 having a higher affinity for lipids, as desired.

Series [4] is described as follows: Plasma serum stability of KTP-NH2 analogues. The format is in vitro ADME. The following applies: Human Serum, test concentration 400 uM, 1-hour incubation. How it is done:
In order to increase the potential of KTP-NH2 as a drug for systemic administration, derivatives with improved plasma stability were generated, and tested, including different isomers of KTP-NH2 and methylated versions of KTP-NH2 isomers: • L-Tyrosyl-D-Arginine-NH2 • D-Tyrosyl-D-Arginine-NH2 • D-Tyrosyl-L-Arginine-NH2 • Methyl-L-Tyrosyl-L-Arginine-NH2 • Methyl-L-Tyrosyl-D-Arginine-NH2
These analogues were tested for plasma serum stability, in comparison with KTP-NH2.

Series [5] is described as follows: Acrylamide quenching to determine aggregation in aqueous medium. The conditions noted are these: acrylamide quenching of tyrosine fluorescence, Stern-Volmer plot. The format is physicochemical. How it is done:
The aggregation of molecules in aqueous medium, as a result of poor solubility, for example, is a critical parameter in pharmacology. […] For this purpose, acrylamide quenching studies were performed (Lakowicz J. R 1999. Principles of Fluorescence spectroscopy, Second Edition ed., Kluwer Academic/Plenum Publishers, New York; Coutinho A and Prieto M. 1993. Ribonuclease T1 and alcohol dehydrogenase fluorescence quenching by acrylamide: A laboratory experiment for undergraduate students J. Chem. Education, 70: 425-428).
Acrylamide is an aqueous quencher of the tyrosine fluorescence. When fluorescent peptides aggregate, the phenolic groups tend to cluster and remain inaccessible to hydrophilic molecules. Conversely, when no aggregation occurs, all tyrosine residues are exposed to the solvent and, therefore, accessible to the contact and quenching by acrilamide.
The fluorescence spectra were not concentration-dependent (not shown) and there was a linear dependence of fluorescence intensity on concentration (not shown).

Series [6] relates to rats (Wister, male). The experiment in a line: Increasing-temperature hot-plate test. The format is in vivo, rat. The conditions noted are these: i.p. and p.o. administration. Here is the method: as §1, §2
The hot-plate test (Eddy N. B and Leimbach D. 1953. Synthetic analgesics II. Dithienylbutenyl and dithienylbutylamines J. Pharmacol. Exp. Ther. 45: 339) evaluates a supraspinally integrated response in the form of thermal pain reflexes due to footpad contact with a heated surface. During the experiments, the animal is confined in a removable clear acrylic compartment where the latency time to the first hind paw or/and jumping responses are measured. […] The response is the licking of the hindpaw, and the corresponding plate temperature represents the recorded nociceptive end-point. […]
as §3

As for `N=C(N)NCCCC(NC(=O)C(N)Cc1ccc(O)cc1)C(N)=O` [KTP-NH2, L-Tyr-L-Arg-NH2], in series [1], the CC50 is greater than 125 µM. Further, the “stability in human plasma” value in “Plasma stability” was 14-21%. For the same compound, the “effect of naloxone pretreatment on analgesia” value in the series on rats (Wister, male) [2] (naloxone 10 min before KTP-NH2, KTP-NH2 3 mg/100 g, naloxone 0.5 mg/100 g, tail-flick) is listed as “completely antagonized the analgesia”. In the series on rats (Wister, male) [2] (rats, i.p. and p.o. administration), the “anti-nociceptive response, time to remove tail after stimulus (Tail Flick)” value is on record as “clear anti-nociceptive response”. Also, the “depth of insertion from the lipid/water interface” value in series [3] is reported as 4 Å. Further, the “Mean Parent Remaining (%)” value in series [4] is given as 14.00%. Besides, the “aggregation in aqueous medium” value in series [5] was “No evidence was found for aggregation”. Moreover, the “anti-nociceptive response, temperature increase tolerated in the paw (Hot Plate)” value in the series on rats (Wister, male) [6] is “clear anti-nociceptive response”.
